Source: US11945824B2, “Heterocyclic compounds as anti-viral agents” (priority 2020, dated 2024)

Experiments:
[1] = tested on: Human RSV-A (“Long” strain); experiment: RSV-A assay (CPE, ATPlite readout in Hep-2 cells); format: cell-based; conditions: human respiratory syncytial virus, 120 h; Hep-2 cells, MOI 0.1, 5-day incubation, ATPlite; read-out: Human RSV-A (“Long” strain) EC50
From the text: Hep-2 cells, (originally derived from tumors grown in irradiated-cortisonised weanling rats that had been injected with epidermoid carcinoma tissue from a person's larynx, but later found to be indistinguishable from HeLa cells by PCR DNA analysis), were used for the culturing of genotype A, “Long” strain RSV. Flasks were inoculated with RSV and viral stocks were collected once cytopathic effect (CPE) was greater than 90%. Viral stocks in 25% sucrose media were snap frozen using liquid nitrogen to increase viral stability. Viral stock titers were quantified by tissue culture infectious dose 50% (TCID50) using 8,000 cells per well and 3-fold viral dilutions across a 96-well plate, cultured for 4 days. Viral stock titers were also quantified by a plaque forming unit assay, as described elsewhere.
Following extensive parameter testing, the final assay is run as follows: Hep-2 cells are seeded into the inner 60 wells of a 96-well plate at 8,000 cells per well in a volume of 50 μL using Growth Media (DMEM without phenol red, 1% L-Glut, 1% Penn/Strep, 1% nonessential amino acids, 10% heat-inactivated FBS). 2-fold serial dilutions of control and test compounds are added to the wells in duplicate in a total volume of 25 μL. Viral stock is then added to the wells at a multiplicity of infection (MOI) of 0.1 in a volume of 25 μL, bringing the total volume of each well to 100 μL. The MOI is calculated using the PFU/mL, or TCID50 if unavailable. Each 96-well plate has a control column of 6 wells with cells and virus but no compound (negative control, max CPE), a column with cells but no compound or virus (positive control, minimum CPE), and a column with no cells or virus or compound (background plate/reagent control). The control wells with cells but no virus are given an additional 25 μL of growth media containing an equal quantity of sucrose as those wells receiving the viral stock in order to keep consistent in media and volume conditions. The outer wells of the plate are filled with 125 μL of moat media (DMEM, 1% Penn/Strep) to act as a thermal and evaporative moat around the test wells. Following a 5-day incubation period, the plates are read using ATPlite (50 uL added per well), which quantifies the amount of ATP (a measure of cell health) present in each well. Assay plates are read using the Envision luminometer. […] EC50 ranges are as follows: A<0.2 μM; B≥0.2 μM.

[2] = tested on: rHMPV-GFP (recombinant HMPV CAN97-83, MPV-GFP1); experiment: HMPV antiviral assay (eGFP fluorescence in Vero E6 cells); format: cell-based; conditions: human metapneumovirus, Vero C1008, 120 h, read-out: rHMPV-GFP EC50
Experimental: Method for HMPV Antiviral Assay
HMPV antiviral activity was evaluated using a recombinant version of HMPV CAN97-83 engineered to contain the coding sequence for enhanced green fluorescence protein (eGFP) in the 3′ end of the virus genome (MPV-GFP1, ViraTree). Vero E6 cells (ATCC #CCL-7) were seeded at a density of 12,000 cells/100 μL/well into 96-well cell plates (VENDOR) one day prior to the assay. On the day of screening, the cell culture medium was aspirated from the wells and cells were washed twice with serum-free Eagle's Modified Essential Medium (EMEM, ATCC #) containing 1% penicillin-streptomycin (Invitrogen) (SF-EMEM). Cell washes were performed by dispensing 100 μL SF-EMEM per well and immediately aspirating the wash medium from the well. Following the second wash step, serum-free OptiMEM (Invitrogen, Cat No.) (SF-OptiMEM) containing 0.5 μg/mL TPCK-Trypsin (VENDOR) and 1% penicillin-streptomycin was added to the cells at 50 μL/well. Compounds were added into the 96-well plates using a JANUS automated liquid handling system (VENDOR). Compounds were initially diluted 1:50 into an intermediate 96-well plate containing SF-OptiMEM prior to transfer to the assay plate (25 μL/well). Each of the test compounds were tested in duplicate wells at final concentrations starting from 8 μM or 2 μM using ½ stepwise dilutions for a total of 8 points. Virus infection was performed by preparing a working stock of MPV-GFP1 at a multiplicity of infection (MOI) equal to 0.05/25 μL and aliquoting 25 μL of virus inoculum to the compound and positive control wells. SF-OptiMEM was added (25 μL/well) to the appropriate wells to serve as a virus-free negative control for the assay. The final DMSO concentration of all wells is 0.5%. Plates were incubated at 32° C., 5% CO2 for 5 days. After 5 days incubation, eGFP fluorescence intensity was measured at […] using a Spectramax i3X plate reader (VENDOR).
Percent viral inhibition was calculated using the following equation: y=[[…](XQ/XP)]×100 Where XQ is the fluorescence intensity measured in a well containing recombinant MPV-GFP1-infected, compound-treated cells and XP is the average fluorescence intensity measured in the wells containing untreated cells infected with recombinant virus. EC50 values were then calculated by non-linear regression using a four-parameter curve logistic equation. The curve fit model employed was XLFit Dose Response One Site Model 200: y=(A+(B/(1+((x/C)^D)))) Where A is the minimum y value, B is the maximum y value, C is the log EC50 value, and D is the slope factor. The EC50 for each compound is listed in Table 2 and EC50 ranges are as follows: A<0.2 μM; B≥0.2 μM.

For `COc1cc(C(=O)NC[C@](O)(c2cc3c(c(-c4ccc(F)cc4)n2)OC[C@]3(C)n2cnnc2)C2CC2)cc2cccnc12` [Example 16, N-((S)-2-cyclopropyl-2-((R)-7-(4-fluorophenyl)-3-methyl-3-(4H-1,2,4-triazol-4-yl)-2,3-dihydrofuro[2,3-c]pyridin-5-yl)-2-hydroxyethyl)-8-methoxyquinoline-6-carboxamide], the EC50 [1] was < 200 nM and the EC50 [2] was > 200 nM.

In the case of `COc1cc(C(=O)NC[C@](O)(c2cc3c(c(-c4ccc(F)cc4)n2)OC[C@]3(C)n2ccnn2)C2CC2)ccc1OC1CC1` [Example 17, 4-cyclopropoxy-N-((S)-2-cyclopropyl-2-((R)-7-(4-fluorophenyl)-3-methyl-3-(1H-1,2,3-triazol-1-yl)-2,3-dihydrofuro[2,3-c]pyridin-5-yl)-2-hydroxyethyl)-3-methoxybenzamide], the EC50 [1] is reported as < 200 nM and the EC50 [2] is reported as < 200 nM.

`COc1cc(C(=O)NC[C@](O)(c2cc3c(c(-c4ccc(F)cc4)n2)OC[C@]3(C)c2cnn[nH]2)C(F)(F)F)cc2cccnc12` [Example 18, 8-methoxy-N-((S)-3,3,3-trifluoro-2-((S)-7-(4-fluorophenyl)-3-methyl-3-(1H-1,2,3-triazol-5-yl)-2,3-dihydrofuro[2,3-c]pyridin-5-yl)-2-hydroxypropyl)quinoline-6-carboxamide] was tested, and the EC50 [1] was < 200 nM and the EC50 [2] was > 200 nM.

In the case of `COc1cc(C(=O)NC[C@](O)(c2cc3c(c(-c4ccc(F)cc4)n2)OC[C@]3(C)c2ncc[nH]2)C(F)(F)F)cc2cccnc12` [Example 20, 8-methoxy-N-((S)-3,3,3-trifluoro-2-((S)-7-(4-fluorophenyl)-3-(1H-imidazol-2-yl)-3-methyl-2,3-dihydrofuro[2,3-c]pyridin-5-yl)-2-hydroxypropyl)quinoline-6-carboxamide], the EC50 [1] is reported as < 200 nM and the EC50 [2] is reported as > 200 nM.

For `C[C@]1(c2nc3ccccc3[nH]2)COc2c1cc([C@@](O)(CNC(=O)c1cc(OC3CC3)c3ncccc3c1)C(F)(F)F)nc2-c1ccc(F)cc1` [Example 21, N-((S)-2-((S)-3-(1H-benzo[d]imidazol-2-yl)-7-(4-fluorophenyl)-3-methyl-2,3-dihydrofuro[2,3-c]pyridin-5-yl)-3,3,3-trifluoro-2-hydroxypropyl)-8-cyclopropoxyquinoline-6-carboxamide], the EC50 [1] was < 200 nM and the EC50 [2] was > 200 nM.

In the case of `C[C@]1(c2cc[nH]n2)COc2c1cc([C@@](O)(CNC(=O)c1cc(OC3CC3)c3ncccc3c1)C(F)(F)F)nc2-c1ccc(F)cc1` [Example 22, 8-cyclopropoxy-N-((S)-3,3,3-trifluoro-2-((S)-7-(4-fluorophenyl)-3-methyl-3-(1H-pyrazol-3-yl)-2,3-dihydrofuro[2,3-c]pyridin-5-yl)-2-hydroxypropyl)quinoline-6-carboxamide], the EC50 [1] is reported as < 200 nM and the EC50 [2] is reported as > 200 nM.

`COc1cc(C(=O)NC[C@](O)(c2cc3c(c(-c4ccc(F)cc4)n2)OC[C@]3(C)Cc2ncc[nH]2)C(F)(F)F)cc2cccnc12` [Example 23, N-((S)-2-((R)-3-((1H-imidazol-2-yl)methyl)-7-(4-fluorophenyl)-3-methyl-2,3-dihydrofuro[2,3-c]pyridin-5-yl)-3,3,3-trifluoro-2-hydroxypropyl)-8-methoxyquinoline-6-carboxamide] was tested, and the EC50 [1] was < 200 nM and the EC50 [2] was < 200 nM.
